In brackets after ≈: the same amount, converted by molar mass. Like-named read-outs stand apart in the source and are kept apart here.
Tests used:
[1] = system: Haemophilus influenzae Q1; assay: MIC against human bacteria in vitro; type: cell-based
[2] = system: M. hyosynoviae ATCC 25591; assay: MIC against mycoplasma in vitro; type: cell-based; details: 144 h
[3] = system: Staph. aureus Oxford; assay: MIC against veterinary bacteria in vitro; details: Staphylococcus aureus, 18 h
Experimental: (§1) The activity of the compounds of the Examples against various veterinarily important bacteria, was assayed in vitro using two-fold serial dilutions in Diagnostic Sensitivity Test Agar inoculated with 10^4 organisms.

[4] = system: Neisseria catarrhalis 1502; assay: MIC against human bacteria in vitro; type: cell-based
[5] = system: M. gallisepticum S6; assay: MIC against mycoplasma in vitro; type: cell-based; details: Mycoplasmoides gallisepticum
[6] = system: M. suipneumoniae JF 435; assay: MIC against mycoplasma in vitro; type: cell-based; details: Mesomycoplasma hyopneumoniae, JF435, 144 h
[7] = system: Past. haemolytica PA5; assay: MIC against veterinary bacteria in vitro; details: Mannheimia haemolytica, PA5, 18 h
Experimental: as §1

[8] = system: Ps. aeruginosa NCTC 10662; assay: MIC against human bacteria in vitro; type: cell-based; details: Pseudomonas aeruginosa
[9] = system: M. suipneumoniae Str. 11; assay: MIC against mycoplasma in vitro; type: cell-based; details: Mesomycoplasma hyopneumoniae
[10] = system: Corynebacterium pyogenes CY1; assay: MIC against veterinary bacteria in vitro; details: CY1, 18 h
Experimental: as §1

[11] = system: Strep. pyogenes R80/421-A; assay: MIC against human bacteria in vitro; type: cell-based; details: Streptococcus pyogenes; Strep. pyogenes R80/421-A; 5% chocolated horse blood agar, 18 hours; read-out: MIC
[12] = system: M. suipneumoniae NCTC 10110; assay: MIC against mycoplasma in vitro; type: cell-based; details: Mesomycoplasma hyopneumoniae, NCTC10110, 144 h
[13] = system: M. suipneumoniae J2206/183^b; assay: MIC against mycoplasma in vitro; type: cell-based; details: Mesomycoplasma hyopneumoniae, 144 h
[14] = system: E. coli NCTC 10418; assay: MIC against veterinary bacteria in vitro; details: Escherichia coli, NCTC10418, 18 h
Experimental: as §1

[15] = system: Erysipelothrix rhusiopathiae NCTC 8163; assay: MIC against veterinary bacteria in vitro; details: Erysipelothrix rhusiopathiae, NCTC8163, 18 h
Experimental: as §1

[16] = system: Haemophilus influenzae Wy21; assay: MIC against human bacteria in vitro; type: cell-based
[17] = system: M. suipneumoniae NB12; assay: MIC against mycoplasma in vitro; type: cell-based; details: Mesomycoplasma hyopneumoniae
[18] = system: M. bovis NCTC 10131; assay: microbe, parasite or virus in culture; type: cell-based; details: NCTC10131, 144 h
[19] = system: S. typhimurium S18; assay: MIC against veterinary bacteria in vitro; details: Salmonella enterica, TYPHIMURIUM, 18 h
Experimental: as §1

[20] = system: M. pneumoniae ATCC 15492; assay: MIC against mycoplasma in vitro; type: cell-based; details: Mycoplasmoides pneumoniae, ATCC15492, 144 h
[21] = system: Staph. aureus 152 (pen. sens); assay: MIC against veterinary bacteria in vitro; details: Staphylococcus aureus, 18 h
Experimental: as §1

[22] = system: Strep. uberis SPU1; assay: MIC against veterinary bacteria in vitro; details: Streptococcus uberis, SPU1, 18 h
Experimental: as §1

[23] = system: M. bovigenitalium ATCC 14173; assay: MIC against mycoplasma in vitro; type: cell-based; details: 144 h
[24] = Haemophilus influenzae Q1, 5% chocolated horse blood agar, 18 hours, read-out: MIC
[25] = Neisseria catarrhalis 1502, 5% chocolated horse blood agar, 18 hours, read-out: MIC
[26] = 144 h, M. gallisepticum S6, 6 days, 37° C., read-out: MIC
[27] = M. suipneumoniae JF 435, 6 days, 37° C., read-out: MIC
[28] = NCTC10662, Ps. aeruginosa NCTC 10662, 5% chocolated horse blood agar, 18 hours, read-out: MIC
[29] = M. suipneumoniae NCTC 10110, 6 days, 37° C., read-out: MIC
[30] = M. suipneumoniae J2206/183^b, 6 days, 37° C., read-out: MIC
[31] = Haemophilus influenzae Wy21, 5% chocolated horse blood agar, 18 hours, read-out: MIC
[32] = 144 h, M. suipneumoniae NB12, Friis broth, 0.9% agarose, 6 days, 37° C., read-out: MIC
[33] = M. pneumoniae ATCC 15492, 6 days, 37° C., read-out: MIC
[34] = M. hyosynoviae ATCC 25591, 6 days, 37° C., read-out: MIC
[35] = 144 h, M. suipneumoniae Str. 11, 6 days, 37° C., read-out: MIC
[36] = M. bovigenitalium ATCC 14173, 6 days, 37° C., read-out: MIC
[37] = Haemophilus influenzae, Q1, 18 h
[38] = Haemophilus influenzae, WY21, 18 h

C/C(=C\c1ncc(-c2ccccc2)o1)C[C@@H]1OC[C@H](C[C@@H]2O[C@H]2[C@@H](C)[C@H](C)O)[C@@H](O)[C@H]1O [Example 1, 2-(1-normon-2-yl)-5-phenyloxazole A]
MIC [1, 24]: 1 µg/mL (≈ 2.25 µM)
MIC [2]: 0.5 µg/mL (≈ 1.13 µM)
MIC [3]: 1.25 µg/mL (≈ 2.82 µM)
MIC [4, 25]: 10 µg/mL (≈ 22.5 µM)
MIC [5, 26]: 2.5 µg/mL (≈ 5.64 µM)
MIC [6, 27]: 1 µg/mL (≈ 2.25 µM)
MIC [7]: 80 µg/mL (≈ 180 µM)
MIC [8, 28]: > 100 µg/mL
MIC ([9]; STR.11, 144 h): 0.5 µg/mL (≈ 1.13 µM)
MIC [10]: 80 µg/mL (≈ 180 µM)
MIC [11]: 1 µg/mL (≈ 2.25 µM)
MIC [12, 29]: 1 µg/mL (≈ 2.25 µM)
MIC [13, 30]: 1 µg/mL (≈ 2.25 µM)
MIC [14]: > 80 µg/mL
MIC [15]: 80 µg/mL (≈ 180 µM)
MIC [16, 31]: 1 µg/mL (≈ 2.25 µM)
MIC [17, 32]: 1 µg/mL (≈ 2.25 µM)
MIC [18]: ≤ 0.01 µg/mL
MIC [19]: > 80 µg/mL
MIC [20, 33]: 2.5 µg/mL (≈ 5.64 µM)
MIC [21]: 1.25 µg/mL (≈ 2.82 µM)
MIC [22]: 0.625 µg/mL (≈ 1.41 µM)

C/C(=C\c1ncc(-c2ccc([N+](=O)[O-])cc2)o1)C[C@@H]1OC[C@H](C[C@@H]2O[C@H]2[C@@H](C)[C@H](C)O)[C@@H](O)[C@H]1O [Example 3, 5-p-nitro-phenyl-2-(1-normon-2-yl)-oxazole A]
MIC [1, 24]: 0.1 µg/mL (≈ 0.205 µM)
MIC [2, 34]: 0.25 µg/mL (≈ 0.512 µM)
MIC [3]: 0.312 µg/mL (≈ 0.639 µM)
MIC [4, 25]: 0.5 µg/mL (≈ 1.02 µM)
MIC [5, 26]: 0.5 µg/mL (≈ 1.02 µM)
MIC [6, 27]: 0.25 µg/mL (≈ 0.512 µM)
MIC [7]: 10 µg/mL (≈ 20.5 µM)
MIC [8, 28]: > 100 µg/mL
MIC [9, 35]: 0.1 µg/mL (≈ 0.205 µM)
MIC [10]: 80 µg/mL (≈ 164 µM)
MIC [11]: 0.5 µg/mL (≈ 1.02 µM)
MIC [12, 29]: 0.25 µg/mL (≈ 0.512 µM)
MIC [13, 30]: 0.25 µg/mL (≈ 0.512 µM)
MIC [14]: > 80 µg/mL
MIC [15]: > 80 µg/mL
MIC [16, 31]: 0.1 µg/mL (≈ 0.205 µM)
MIC [17, 32]: 0.1 µg/mL (≈ 0.205 µM)
MIC [18]: 0.025 µg/mL (≈ 0.0512 µM)
MIC [19]: > 80 µg/mL
MIC [20, 33]: 0.5 µg/mL (≈ 1.02 µM)
MIC [23, 36]: 0.05 µg/mL (≈ 0.102 µM)
MIC [21]: 0.312 µg/mL (≈ 0.639 µM)
MIC [22]: 0.039 µg/mL (≈ 0.0798 µM)

COc1ccc(-c2cnc(/C=C(\C)C[C@@H]3OC[C@H](C[C@@H]4O[C@H]4[C@@H](C)[C@H](C)O)[C@@H](O)[C@H]3O)o2)cc1 [Example 4, 5-p-methoxyphenyl-2-(1-normon-2-yl)oxazole A]
MIC [1, 24]: 2.5 µg/mL (≈ 5.28 µM)
MIC [2]: 0.5 µg/mL (≈ 1.06 µM)
MIC [3]: 0.625 µg/mL (≈ 1.32 µM)
MIC [4, 25]: 10 µg/mL (≈ 21.1 µM)
MIC [5, 26]: 2.5 µg/mL (≈ 5.28 µM)
MIC [6]: 1 µg/mL (≈ 2.11 µM)
MIC [7]: 40 µg/mL (≈ 84.5 µM)
MIC [8, 28]: > 100 µg/mL
MIC ([9]; STR.11, 144 h): 0.5 µg/mL (≈ 1.06 µM)
MIC [10]: > 80 µg/mL
MIC [11]: 5 µg/mL (≈ 10.6 µM)
MIC [12]: 1 µg/mL (≈ 2.11 µM)
MIC [13]: 1 µg/mL (≈ 2.11 µM)
MIC [14]: > 80 µg/mL
MIC [15]: > 80 µg/mL
MIC [16, 31]: 2.5 µg/mL (≈ 5.28 µM)
MIC ([17]; NB12, 144 h): 0.5 µg/mL (≈ 1.06 µM)
MIC [18]: 0.025 µg/mL (≈ 0.0528 µM)
MIC [19]: > 80 µg/mL
MIC [23]: 0.05 µg/mL (≈ 0.106 µM)
MIC [21]: 5 µg/mL (≈ 10.6 µM)
MIC [22]: 0.312 µg/mL (≈ 0.659 µM)

C/C(=C\c1ncc(-c2cccc([N+](=O)[O-])c2)o1)C[C@@H]1OC[C@H](C[C@@H]2O[C@H]2[C@@H](C)[C@H](C)O)[C@@H](O)[C@H]1O [Example 6, 5-m-nitrophenyl-2-(1-normon-2-yl)oxazole A]
MIC [1, 24]: 2 µg/mL (≈ 4.09 µM)
MIC [2, 34]: 0.5 µg/mL (≈ 1.02 µM)
MIC [3]: 1.25 µg/mL (≈ 2.56 µM)
MIC [4, 25]: 4 µg/mL (≈ 8.19 µM)
MIC [5, 26]: 1 µg/mL (≈ 2.05 µM)
MIC [6]: 0.05 µg/mL (≈ 0.102 µM)
MIC [7]: 80 µg/mL (≈ 164 µM)
MIC [8, 28]: > 128 µg/mL
MIC ([9]; STR.11, 144 h): 0.05 µg/mL (≈ 0.102 µM)
MIC [10]: > 80 µg/mL
MIC [11]: 4 µg/mL (≈ 8.19 µM)
MIC [12]: 0.05 µg/mL (≈ 0.102 µM)
MIC [13]: 0.05 µg/mL (≈ 0.102 µM)
MIC [14]: > 80 µg/mL
MIC [15]: > 80 µg/mL
MIC [16, 31]: 2 µg/mL (≈ 4.09 µM)
MIC ([17]; NB12, 144 h): 0.05 µg/mL (≈ 0.102 µM)
MIC [18]: 0.025 µg/mL (≈ 0.0512 µM)
MIC [19]: > 80 µg/mL
MIC [20, 33]: 1 µg/mL (≈ 2.05 µM)
MIC [23]: 0.05 µg/mL (≈ 0.102 µM)
MIC [22]: 0.07 µg/mL (≈ 0.143 µM)

COC(=O)CCCCCCCc1cnc(/C=C(\C)C[C@@H]2OC[C@H](C[C@@H]3O[C@H]3[C@@H](C)[C@H](C)O)[C@@H](O)[C@H]2O)o1 [Example 7, 5-(7-Methoxycarbonylheptyl)-2-(1-normon-2-yl)oxazole A]
MIC [1, 37]: 0.5 µg/mL (≈ 0.955 µM)
MIC [2, 34]: 5 µg/mL (≈ 9.55 µM)
MIC [3]: 5 µg/mL (≈ 9.55 µM)
MIC ([4]; Neisseria, 1502, 18 h): 5 µg/mL (≈ 9.55 µM)
MIC [5, 26]: > 10 µg/mL
MIC [6, 27]: > 10 µg/mL
MIC [7]: > 80 µg/mL
MIC ([8]; NCTC10662, 18 h): > 100 µg/mL
MIC [9, 35]: 10 µg/mL (≈ 19.1 µM)
MIC [10]: > 80 µg/mL
MIC [11]: 25 µg/mL (≈ 47.7 µM)
MIC [12, 29]: 10 µg/mL (≈ 19.1 µM)
MIC [13, 30]: > 10 µg/mL
MIC [14]: > 80 µg/mL
MIC [15]: > 80 µg/mL
MIC [16, 38]: 1 µg/mL (≈ 1.91 µM)
MIC [17, 32]: > 10 µg/mL
MIC [18]: 0.1 µg/mL (≈ 0.191 µM)
MIC [19]: > 80 µg/mL
MIC [20, 33]: > 10 µg/mL
MIC [23, 36]: 1 µg/mL (≈ 1.91 µM)
MIC [21]: 5 µg/mL (≈ 9.55 µM)
MIC [22]: 1.25 µg/mL (≈ 2.39 µM)

CSc1ccc(-c2cnc(/C=C(\C)C[C@@H]3OC[C@H](C[C@@H]4O[C@H]4[C@@H](C)[C@H](C)O)[C@@H](O)[C@H]3O)o2)cc1 [Example 9, 5-p-methylthiophenyl-2-(1-normon-2-yl)oxazole A]
MIC [1, 37]: 5 µg/mL (≈ 10.2 µM)
MIC [2]: 0.5 µg/mL (≈ 1.02 µM)
MIC [3]: 0.625 µg/mL (≈ 1.28 µM)
MIC [4, 25]: 10 µg/mL (≈ 20.4 µM)
MIC ([5]; S6, 144 h): 1 µg/mL (≈ 2.04 µM)
MIC [6]: 0.5 µg/mL (≈ 1.02 µM)
MIC [7]: 40 µg/mL (≈ 81.7 µM)
MIC ([8]; NCTC10662, 18 h): > 100 µg/mL
MIC ([9]; STR.11, 144 h): 0.5 µg/mL (≈ 1.02 µM)
MIC [10]: 80 µg/mL (≈ 163 µM)
MIC [11]: 10 µg/mL (≈ 20.4 µM)
MIC [12]: 0.5 µg/mL (≈ 1.02 µM)
MIC [13]: 0.5 µg/mL (≈ 1.02 µM)
MIC [14]: > 80 µg/mL
MIC [15]: 80 µg/mL (≈ 163 µM)
MIC [16, 38]: 50 µg/mL (≈ 102 µM)
MIC ([17]; NB12, 144 h): 0.5 µg/mL (≈ 1.02 µM)
MIC [18]: 0.05 µg/mL (≈ 0.102 µM)
MIC [19]: > 80 µg/mL
MIC [20]: 1 µg/mL (≈ 2.04 µM)
MIC [23]: 0.1 µg/mL (≈ 0.204 µM)
MIC [21]: 0.625 µg/mL (≈ 1.28 µM)
MIC [22]: 0.16 µg/mL (≈ 0.327 µM)
